Test results as given in patent publication US11992498B2, “Substituted N9-adenine derivatives, pharmaceutical compositions containing same and use thereof” (priority 2018, dated 2024).

Experiments:
Format in all cases: cell-based, mouse
[1] = test system: C2C12 cells; assay: Glucose consumption test (2-deoxyglucose uptake, luminometric) in C2C12 myotubes; conditions: one hour incubation
Procedure: C2C12 cells of the mouse muscle myoblastoma cell line (from Sigma-Aldrich) were seeded at a cell density of 10,000 cells per well in a white 96-well plate compatible with the use of a luminometer. Cells were grown for 5 days in 200 μl/well of growth medium (high glucose DMEM, 10% foetal bovine serum […], penicillin and […]) in an incubator at 37° C. and 5% CO2. The medium was changed every two days. The medium was then replaced with a differentiation medium (low glucose DMEM, 2% […], penicillin and […]), allowing the cells to differentiate into myotubes for three days. The medium was changed every day. One day prior to testing, cells were serum starved (low glucose DMEM, penicillin and […]). The medium was then replaced by a DMEM medium without glucose and the compound N9-(3-diethylphosphonyl)phenyl-adenine was incubated for one hour at different concentrations, replicating the conditions in quadruplicate. The positive control consisted of 100 nanomolar human insulin solution (from Sigma). A Promega glucose consumption kit was used following the manufacturer's instructions. […]
Total luminescence was measured on a Biotek MX luminometric plate reader. […]

[2] = test system: AMPK; assay: AMPK activation assay (ELISA ratio phosphorylated α-AMPK:total α-AMPK in C2C12 cells); conditions: concentrations as low as 30 nanomolar, 4 hours of incubation
Procedure: C2C12 cells from the mouse muscle myoblastoma cell line (from Sigma-Aldrich) were seeded at a cell density of 10,000 cells per well in a 96-well plate in 200 μl of growth medium (high glucose DMEM, 10% foetal bovine serum […], penicillin and […]). The cells were allowed to grow until confluence and on the day of the assay they were incubated with the compound of interest in 100 μl of growth medium at 37° C. and 5% CO2 in an incubator for between 1 and 24 hours. All conditions were tested in quadruplicate. The compounds were administered dissolved in sterile anhydrous dimethyl sulphoxide at different concentrations. As a positive control for AMPK activation, an adenosine monophosphate (AMP) solution with a final concentration of […] was used. After the corresponding times, the medium was removed and the cells were carefully washed three times with PBS at room temperature and the Abcam Elisa kit was used to quantify the ratio of phosphorylated α-AMPK:total α-AMPK. The manufacturer's instructions were followed and the signal was quantified using a Licor Odissey® scanner.
The compounds selected as AMPK activators according to the criteria described above are used in glucose consumption tests and MTT cell viability tests.

[3] = test system: C2C12 cells; assay: MTT cell viability/proliferation assay in C2C12 myotubes
Procedure: MTT Cell Viability/Proliferation Assay
The MTT redox assay is based on the metabolic reduction of bromide from 3-(4,5-dimethylthiazol-2-yl)-2,5-diphenyltetrazole (MTT) that is produced by the mitochondrial enzyme succinate-dehydrogenase, which colours the formazan dye blue, allowing to determine the mitochondrial functionality of the treated cells.
C2C12 cells were seeded at a density of 10,000 cells per well in a white 96-well plate compatible with the use of a luminometer. Cells were grown for 5 days in 200 μl/well of growth medium (high glucose DMEM, 10% FBS, penicillin and […]), with the medium being replaced every two days. Subsequently, the medium was replaced by a differentiation medium (low glucose DMEM, 2% NHS, penicillin and […]) and the cells were allowed to differentiate in myotubes for three days, the medium being changed every day. In all processes, cells were incubated at 37° C. and 5% CO2 in a cell incubator. The compound N9-(3-diethylphosphonyl)phenyl-adenine was incubated for 24 and 48 hours in low glucose DMEM without serum. […] After incubation, 10 μl of the MTT reagent (Abcam) was added to each well and, after 30 min, 45 min and 60 min of incubation, the absorbance at 490 nm was measured in a photometer with a Biotek TX plate reader. The reading is an indirect measure of the NAD(P)H enzyme dependent on cellular oxidase reductases. […]

## N9-(3-diethylphosphonyl)phenyl-adenine
[1]; 30 nanomolar, C2C12 myotubes
  Luminosity as % of the control (glucose consumption): 125±9%
[1]; concentrations as low as 30 nanomolar, control 100 nanomolar human insulin
  glucose consumption activity compared with insulin controls: analogous to or greater than that of insulin controls
[2]
  AMPK activity as % of that obtained with the AMP positive control: greater than 500%
  AMPK activity compared with the AMP positive control: higher AMPK activity than the AMP positive control
[3]; 30 nanomolar, 48 hours incubation
  Luminosity as % of the control (MTT): 157±5%
[3]; nanomolar concentrations
  MTT signal compared to controls: significantly higher signal compared to controls
